Experimental data taken from patent publication US7910692B2, “Immunogenic peptides and methods of use” (The United States of America as represented by the …, priority 2006, dated 2011).
Values belong to the substance of their own block, whether it stands above or below them.

Tests used:
HLA-A2 molecules = molecular target: T1, HLA-A2 molecules (Homo sapiens, UniProt P04439, D140Y/D185E/D98H/E176V/E277Q/G131W/G231S/I119V/I121R/I166T/I218V/L300P/L318F/N151K/N90K/P208A/P217A/Q86G/Q94H/R138H/R169H/T345S); assay: Peptide binding to HLA-A2: upregulation of HLA-A2 expression on T2 cells, flow cytometry; conditions: for binding to HLA-A2 compared with native peptides: all concentrations, 0 to 25 μg/ml (FIG. 1A); for T2 binding, mean fluorescence intensity: T2 cells
T1 construct: expressed in transfected cells; host or cells: T2 cells (provided by Dr. Peter Cresswell)
Method: The primary amino acid sequence of human PAGE4 was analyzed for consensus motifs for novel HLA-A2 binding peptides. Two 10-mer peptides (P16-25 designated as P16 and P59-68 designated as P59) and one 9-mer peptide (P84-92 designated as P84) were identified and evaluated (Table 1). […] For this reason, five different analogues of native peptides were synthesized and were investigated for their binding ability to HLA-A2-positive T2 cells along with the native P16, P59 and P84 peptides. A MUC-1 peptide and a CEA HLA-A3 binding peptide (CAP-7) were used as a positive and negative control, respectively (Tsang et al., J Natl Cancer Inst 1995; 87:982-90).

peptide-HLA-A2 complexes = molecular target: T2, peptide-HLA-A2 complexes (Homo sapiens, UniProt P04439, D140Y/D185E/D98H/E176V/E277Q/G131W/G231S/I119V/I121R/I166T/I218V/L300P/L318F/N151K/N90K/P208A/P217A/Q86G/Q94H/R138H/R169H/T345S); assay: Stability of peptide-HLA-A2 complexes on T2 cells after brefeldin A block; type: binding; conditions: 8-hour observation period; 12.5 μg/ml (FIG. 1B)
T2 construct: expressed in transfected cells; host or cells: T2 cells (provided by Dr. Peter Cresswell)
Method: FIGS. 1A and 1B are line graphs showing the binding of native PAGE4 peptides and their agonist peptides to HLA-A2 molecules. Peptides were analyzed for binding to T2 cell line as described in Example 1. For the results presented in FIG. 1A, peptides were used at concentrations of 0 to 25 μg/ml. P16 peptide (∘), P16-1 (●), P16-2 (▴), P84 (□) and P84-1 (▪), positive control (MUC-1 peptide) (+) and negative control (HLA-A3 binding peptide) (X). Results are expressed in mean fluorescence intensity (MFI). FIG. 1B presents a comparison of the stability of HLA-A2 peptide complexes of PAGE4 native and agonist peptides. T2 cells were incubated overnight with P16 peptide (∘), P16-1 (●), P16-2 (▴), P84 (□) and P84-1 (▪) peptides at a concentration of 12.5 μg/ml and then were washed free of unbound peptide and incubated with brefeldin A to block delivery of new class 1 molecules to the cell surface. At the indicated times, cells were stained for the presence of surface peptide-HLA-A2 complexes. Results are expressed in relative percentage of binding compared with 100% at time 0.
The analogues of P16 were designated P16-1 and P16-2, and the analogue of P84 was designated as P84-1. These peptides bound to HLA-A2 at higher levels than their native peptides. Studies were then conducted to examine the ability of these peptides to bind HLA-A2 at various concentrations. […] Studies were then undertaken to examine the stability of the peptide-MHC complex for the peptides P16, P84, P16-1, P16-2 and P84-1. Each peptide was incubated with T2 cells overnight, the unbound peptides were washed off, and the cells were then incubated with Brefeldin A to block delivery of new class I molecules to the cell surface. Cells were analyzed for the presence of peptide-HLA-A2 complexes at various time points.

LNCaP cells = assay: Cold target inhibition assay; type: cell-based, human; conditions: peptide-pulsed (12.5 μg/ml) unlabeled T2 cells; LNCaP:T2 1:10; E:T 15:1 (FIG. 5A)
Method: For the results presented in FIG. 5A, ^111In labeled LNCaP cells and unlabeled T2 cells were used at a ratio of 1:10. T2 cells were incubated with or without P16-1 peptide (12.5 μg/ml) in serum-free medium for 2 hours at 37° C. prior to the addition of the T-A-P16-1 cells. For the results presented in FIG. 5B, anti-HLA-A2 antibody (10 μg/ml and 50 μg/ml) or 110 μg/ml of control IgG antibody were added to ^111In labeled LNCaP cells for 1 hour at 37° C. prior to the addition of the T-A-P16-1 cells. Results are expressed in percent specific lysis at effector-to-target ratio of 15:1. Bars=SD. Statistically significant (P<0.05, two tailed t test).
To confirm the specificity and HLA-A2 restriction of CTL cytolysis, LNCaP cells were used as target in a cold target inhibition assay. […] Moreover, to determine whether the lysis was HLA-A2 restricted, antibody blocking experiments were carried out.

T2 cells = assay: 111In release assay: lysis of peptide-pulsed T2 targets by PAGE4-specific T-cell lines; type: cell-based; conditions: for % lysis (±SD) by T-A-P16 / % lysis (±SD) by T-B-P16-1: 16-hour 111In release, peptide 12.5 μg/ml, IVS4
Method: Cytotoxic Assay: Cytotoxicity assays were used as described previously (Tsange et al., J Natl Cancer Inst 1995; 87:982-90). A 6-hour or 16-hour ^111In release assay was used to determine T-cell mediated killing. Target cells were labeled with ^111In oxine (Amersham Health, Silver Spring, Md.) for 20 min at room temperature, and used at 3×10^3 cells per well, in 96-well rounded-bottom culture plates. ^111In released was measured by gamma counting. Spontaneous release was determined by incubating the target cells with medium alone, and complete lysis by incubating the target cells with 2.5% Triton X-100. Specific lysis (%)=[(observed release−spontaneous release)/(complete release−spontaneous release)]×100.
To examine the ability of the P16 and P16-1 peptides to activate the PAGE4-specific T-cells, T-A-P16 cells were subsequently analyzed for the ability to lyse peptide-pulsed targets.

T-A-P16 cells = assay: Cytokine production by T-A-P16 cells stimulated with native and agonist P16 peptides (FIG. 2); type: cell-based, human; conditions: vs native P16 or P16-2 peptide; 12.5 ul/ml; effector-to-APC 1:3; 24-hour supernatants (FIG. 2)
Method: FIG. 2 is a set for bar graphs illustrating the ability of autologous B cells pulsed with native and agonist P16 peptides to induce IFN-γ, Lymphotactin, Granzyme B, TNF-α and IL-2 production by T cell line derived from the native peptide (T-A-P16). T-A-P16 cells were used as effectors at in vitro stimulation (IVS-4). T cells were stimulated with irradiated autologous B cells pulsed with different PAGE4 analogues at a concentration of 12.5 ul/ml, and an effector-to-APC ratio of 1:3. Twenty-four-hour culture supernatants were collected and screened for the secretion of IFN-γ, Lymphotactin, Granzyme B, TNF-α and IL-2 using ELISA assay.
Detection of Cytokines: Supernatants of T cells stimulated for […] with peptide-pulsed autologous EBV-transformed B cells, in IL-2-free medium at various peptide concentrations, were screened for secretion of IFN-γ using an ELISA kit (BioSource International, Camarillo, Calif.) and lymphotactin using an ELISA assay (36). Granzyme B, TNF-α and IL-2 were determined by using a Cytokines and Chemokines-Multiplex Kit (Meso Scale Discovery, Geitherburg, Md.). The results were expressed in pg/ml.
Studies were then undertaken to examine the ability of the P16, P16-1, P16-2 peptides to activate the T-A-P16 cells, which were generated with the P16 native peptide. […] The P16-1 agonist was thus chosen for further study.

T-B-P16-1 cells = assay: CD107a mobilization assay; type: cell-based, human; conditions: T-B-P16-1 cells with T2 cells pulsed with 12.5 μg/ml peptide; 5 hours (FIG. 3)
Method: The expression of CD107a on the cell surface of CD8+ T cells and correlation with cytotoxic activity by PAGE4-specific T-cell line (T-B-P16-1) against P16-1 or P16 pulsed T2 cells. 0.5×10^6 effector cells/ml were incubated (FIG. 3a) alone, (FIG. 3b) with T2 cells without peptide, (FIG. 3c) with T2 cells pulsed with 12.5 μg/ml of P16 peptide, or (FIG. 3d) with T2 cells pulsed with 12.5 μg/ml of P16-1 peptide. Results are expressed in % of CD107a positive and CD8 positive cells. Numbers of the upper right are % of specific lysis±SD.
CD107a mobilization assay: The CD107a mobilization assay was performed as previously described (Rubio et al., Nat Med 2003; 9:1377-82). […] Samples were then fixed and the expression of CD107a on the cell surface of CD8^+ T cells was analyzed by flow cytometry.
In order to determine CTL degranulation which is a requisite process of perforin-granzyme mediated killing by activated CD8+ T cells, CD107a mobilization to the cell surface of CD8+ T cells was examined following activation with P16 or P16-1 peptides in addition to CTL assays. T-B-P16-1 cells were incubated with P16 native or P16-1 agonist peptide-pulsed T2 cells for 5 hours in the presence of monensin and analyzed for CD107a mobilization by flow cytometric analysis (FIG. 3). […]

Substance: HLFGYSWYK [CAP-7 peptide, reference compound]
T2 binding, mean fluorescence intensity (HLA-A2 molecules; peptide 25 μg/ml): 260 MFI

Substance: KTPPNPKHA (XXPPNPKHX; (16)..(16) Xaa can be Gln or Tyr; listed as Homo sapiens) [Peptide P84]
binding of native peptides to HLA-A2 molecules in the T2 assay (HLA-A2 molecules; T2 assay): bound to HLA-A2 molecules | T2 binding, mean fluorescence intensity (HLA-A2 molecules; peptide 25 μg/ml): 270 MFI | T2 binding, fold increase as compared with the negative control (HLA-A2 molecules; peptide 25 μg/ml, vs CAP-7 negative control): 1.04 fold

Substance: P84-1: analogue of P84; amino acids 84-92 of SEQ ID NO: 1, X6 tyrosine, X7 leucine, X8 valine (YLPPNPKHV; (16)..(16) Xaa can be Gln or Tyr; listed as Homo sapiens) [Peptide P84-1]
binding to HLA-A2 compared with native peptides (HLA-A2 molecules): higher levels | stability of peptide-HLA-A2 complexes compared with native peptide complexes (peptide-HLA-A2 complexes): more stable

Continued, in another order:

binding to HLA-A2 compared with native peptides (HLA-A2 molecules): higher levels | stability of peptide-HLA-A2 complexes compared with native peptide complexes (peptide-HLA-A2 complexes): more stable
Substance: P16-2: analogue of P16; amino acids 16 to 25 of SEQ ID NO: 1, X1 tyrosine, X2 leucine (YLAPDVVAFV; (16)..(16) Xaa can be Gln or Tyr; listed as Homo sapiens) [Peptide P16-2]

binding to HLA-A2 compared with native peptides (HLA-A2 molecules): higher levels | stability of peptide-HLA-A2 complexes compared with native peptide complexes (peptide-HLA-A2 complexes): greater
Substance: P16-1: agonist analogue of P16; amino acids 16 to 25 of SEQ ID NO: 1, X1 glutamine, X2 leucine (QLAPDVVAFV; (16)..(16) Xaa can be Gln or Tyr; listed as Homo sapiens) [Peptide P16-1]
decrease in CTL activity of T-A-P16-1 cells against labeled LNCaP cells (LNCaP cells): 79.6% | % lysis (±SD) by T-A-P16 (T2 cells; effector T-A-P16, E:T 15:1): 16.7 (0.9) % | % lysis (±SD) by T-A-P16 (T2 cells; effector T-A-P16, E:T 30:1): 20.4 (1.9) % | lysis of peptide-pulsed T2 cells by T-A-P16 compared with P16-pulsed T2 cells (T2 cells; effector T-A-P16, two E:T ratios): higher | % lysis (±SD) by T-B-P16-1 (T2 cells; effector T-B-P16-1, E:T 15:1): 25.8 (0.6) % | % lysis (±SD) by T-B-P16-1 (T2 cells; effector T-B-P16-1, E:T 30:1): 34.7 (0.04) % | lysis of peptide-pulsed T2 cells by T-B-P16-1 compared with P16-pulsed T2 cells (T2 cells; effector T-B-P16-1, two E:T ratios): to a greater extent | IFN-γ, lymphotactin, Granzyme B, TNF-α and IL-2 production by T-A-P16 cells (T-A-P16 cells): higher levels | CD8+ T cells expressing surface CD107a compared with P16 native peptide (T-B-P16-1 cells): Higher number
